Here are results for five compounds from patent US10399949B2, “NK1 receptor antagonist” (KISSEI PHARMACEUTICAL CO., LTD., priority 2015, dated 2019).

Molecules are shown by their SMILES.

One data set deals with T1, human CYP3A4 (Homo sapiens, UniProt P08684).
T1 construct: purchased BD Biosciences
Nature of the data set: Inhibitory effect on CYP3A4 (Luciferin-IPA). The note with it: test compound 10 μM, 30-minutes pre-incubation, Luciferin-IPA 3 μM. The class given is in vitro ADME. On the procedure:
Inhibitory Effect on CYP3A4
The dimethyl sulfoxide (DMSO) solution of the test compound with a concentration 1000 times higher than the evaluation concentration was prepared, and a reaction solution was prepared by diluting the solution. Enzyme reaction was performed by incubating in a potassium phosphate buffer solution (pH 7.4) containing 1 μM to 10 μM test compound, 3.2 mM magnesium chloride, 0.2 pmol human CYP3A4 (BD Biosciences), 0.5 mM reduced nicotinamide adenine dinucleotide phosphate (NADPH) and 3 μM Luciferin-IPA (Promega) at 37° C. for 10 minutes. The volume of the reaction solution was 50 μL/well. The 30-minutes pre-incubation group was incubated at 37° C. for 30 minutes before adding the substrate, the Luciferin-IPA solution (12.5 μL/well). At the end of the enzyme reaction, 50 μL/well of a Luciferin detection reagent (Promega) was added to the wells, and the plate was left at room temperature for 20 minutes. Then, the emission intensities were measured with Infinite M1000 (TECAN), and the enzyme activities (%) relative to the value of the group to which the test compound was not added. As a comparative example, aprepitant, which is an NK1 receptor antagonist, was tested in the same manner.
Test was measured by the above test method, and the results are shown in Table 9 when the concentration of the test compound was 10 μM. In the table, Ex. No. means the Example number, and Pre-incubation (30 min) (%) means the enzyme activities (%) of the 30-minutes pre-incubation groups using the test compounds.

In data set [1] the target is T2, human NK1 receptor (Homo sapiens, UniProt P25103).
T2 construct: expressed in transfected cells; host or cells: 293T cells (RIKEN), transient transfection with pcDNA3.1(-) plasmid
Nature of the data set: Affinity for human NK1 receptor (125I-substance P receptor binding test, membrane fraction). As to conditions: membrane fraction of human NK1 receptor-expressing 293T cells, room temperature 60 minutes, read-out: pIC50 (inverse logarithm of the concentration required for 50% inhibition of 125I-substance P binding) (converted). On the procedure:
Affinity for Human NK1 Receptor
(3) Measurement of Binding Affinity to Human NK1 Receptor
(3-1) Preparation of Membrane Fraction from Human NK1 Receptor-Expressing Cells
Human NK1 receptor-expressing cells were prepared in a 175 cm^2 culture flask (Nippon Becton Dickinson). The formation of a complex of the human NK1 receptor expression plasmid and Lipofectamine 2000 was performed by calculating the culture area ratio and increasing the scale of the method described in the above 2-4 by the ratio. The human NK1 receptor-expressing cells were collected in a buffer solution for the membrane fraction preparation (50 mM Tris (Wako Pure Chemical), 120 mM sodium chloride (Wako Pure Chemical Industries), 5 mM potassium chloride (Wako Pure Chemical Industries), 1 mM ethylenediaminetetraacetic acid (Sigma), 0.002 mg/mL chymostatin (Peptide Institute), 0.04 mg/bacitracin (Wako Pure Chemical Industries), 0.005 mg/mL phosphoramidon (Peptide Institute) and 0.5 mM phenylmethylsulfonyl fluoride (Wako Pure Chemical Industries), pH7.4) and centrifuged at 1,880 g for 10 minutes, and the cell sediment was suspended in the buffer solution for the membrane fraction preparation. After freezing and thawing the cells once, the cells were homogenized using a Dounce-type homogenizer (cooled on ice, 1000 rpm, 20 times). The homogenized cell suspension was centrifuged at 20,000 rpm for 10 minutes, and the supernatant was removed to obtain cell sediment. The cell sediment was suspended again in the buffer solution for the membrane fraction preparation and homogenized using a Dounce-type homogenizer (cooled on ice, 1000 rpm, 30 times). The cell suspension was centrifuged at 20,000 rpm for 10 minutes, and the supernatant was removed to obtain cell sediment. The same homogenization and centrifugation were repeated again, and final cell sediment was obtained. The final cell sediment was suspended in a buffer solution for the receptor binding test (50 mM Tris (Wako Pure Chemical Industries), 3 mM manganese chloride (Wako Pure Chemical Industries), 0.002 mg/mL chymostatin (Peptide Institute), 0.04 mg/bacitracin (Wako Pure Chemical Industries) and 0.02% bovine serum albumin (Sigma), pH 7.4), and the protein concentration was measured using BCA Protein Assay Kit (Pierce).
(3-2) Receptor Binding Test
The buffer solution for the receptor binding test was dispensed to the wells of a 96-well assay plate (Greiner) at 22.5 μL/well. DMSO solutions of a test compound, which were prepared at an 80-time higher concentration using 100% dimethyl sulfoxide (DMSO), were added to the wells at 2.5 μL/well (final concentrations of 1 nM to 100 nM), and the solutions were mixed. As a radiolabeled ligand, ^125I-substance P (Substance P, [^125I]Tyr^8-, PerkinElmer) was used. ^125I-substance P was diluted with the buffer solution for the receptor binding test to a concentration resulting in […] and added to the 96-well assay plate, and the solutions were mixed. The membrane fraction prepared from the human NK1 receptor-expressing cells was diluted with the buffer solution for the receptor binding test to a concentration resulting in 8 to 10 μg/well, suspended until the suspension became in such a homogenous state that the suspension could flow through a 27G injection needle smoothly and then added to the 96-well assay plate at 150 μL/well. Then, the plate was incubated at room temperature for 60 minutes while shaking the plate. […]

Data set [2] deals with T2, human NK1 receptor. The data set can be described thus: Inhibitory effect on human NK1 receptor (substance P-induced increase in intracellular calcium concentration). The class given is cell-based. As to conditions: HEK-293T; substance P 0.1 μM; compound 1 μM; human NK1 receptor-expressing 293T cells; vehicle = 100%; read-out: SPRR (%) (Substance P-Response Remaining, intracellular calcium concentration). On the procedure:
Inhibitory Effect on Human NK1 Receptor
(1) Preparation of Human NK1 Receptor-Expressing Cells
Human NK1 receptor-expressing cells were prepared by the same methods as those described in 2-3 and 2-4 of Test Example 1.
(2) Study on Inhibitory Effect on Increase in Intracellular Calcium Concentration
The human NK1 receptor-expressing cells were washed with 300 μL/well of a washing solution (20 mM HEPES/Hanks Balanced Salt Solution (HBSS) pH7.3). A fluorescent calcium indicator (Fluo-4 Direct Calcium Assay Kit, Life Technologies, containing 0.42 mM probenecid and 0.1% bovine serum albumin, prepared according to the protocol of the product) was added to the wells at 150 μL/well, and the plate was incubated at 37° C. for 30 minutes in an incubator. Then, DMSO solutions of a test compound, which were prepared at an 80-time higher concentration using 100% dimethyl sulfoxide (DMSO), were added to the wells at 2.5 μL/well (final concentrations of 0.1, 1 and 10 μM), and the solutions were mixed. Then, the plate was further incubated at 37° C. for 30 minutes in an incubator. After 30 minutes, the intracellular calcium concentrations were measured immediately.
The intracellular calcium concentrations were each measured as a fluorescent signal using FDSS® 7000 (Hamamatsu Photonics). A substance P (Peptide Institute, Inc.) solution which was prepared at 0.4 μM or 4 μM using an assay buffer (20 mM HEPES/Hanks Balanced Salt Solution (HBSS) pH 7.3 containing 0.1% bovine serum albumin) was added automatically to each well at 50 μL/well (final concentration of 0.1 or 1 μM) 10 seconds after starting reading, and the fluorescent signal was measured up to 120 seconds.
The intracellular calcium concentration (%) of the cells to which a test compound was added was calculated by the equation below, where the fluorescent signal of the group to which the vehicle (DMSO) was added was regarded as 100%, and the fluorescent signal before the addition of substance P was regarded as 0%. Intracellular calcium concentration (%)=(Fluorescent signal of test compound addition group)/(Fluorescent signal of vehicle addition group)×100
The intracellular calcium concentration (%) calculated was regarded as the remaining agonist activity of substance P (Substance P-Response Remaining: SPRR). In the table, Ex. No. means the Example number. SPRR (%) means the value obtained when the concentration of substance P was 0.1 μM and the concentration of the compound was 1 μM.
(A change in cytosolic calcium serves as a functional read-out for many receptors and channels.)

T1 sequence (P08684 whole entry): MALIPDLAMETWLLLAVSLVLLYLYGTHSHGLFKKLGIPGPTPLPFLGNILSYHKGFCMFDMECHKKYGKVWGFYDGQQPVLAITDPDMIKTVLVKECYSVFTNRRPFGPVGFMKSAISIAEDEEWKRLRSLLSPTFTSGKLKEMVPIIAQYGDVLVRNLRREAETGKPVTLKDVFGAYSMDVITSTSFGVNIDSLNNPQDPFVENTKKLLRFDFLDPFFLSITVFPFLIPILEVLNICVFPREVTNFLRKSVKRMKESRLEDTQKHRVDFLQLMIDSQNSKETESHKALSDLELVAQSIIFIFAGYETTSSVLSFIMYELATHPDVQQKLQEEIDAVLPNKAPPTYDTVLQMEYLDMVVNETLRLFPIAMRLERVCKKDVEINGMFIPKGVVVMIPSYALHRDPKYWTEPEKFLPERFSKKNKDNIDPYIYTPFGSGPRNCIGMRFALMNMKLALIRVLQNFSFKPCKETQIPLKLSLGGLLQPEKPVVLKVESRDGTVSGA
T2 sequence (P25103 whole entry): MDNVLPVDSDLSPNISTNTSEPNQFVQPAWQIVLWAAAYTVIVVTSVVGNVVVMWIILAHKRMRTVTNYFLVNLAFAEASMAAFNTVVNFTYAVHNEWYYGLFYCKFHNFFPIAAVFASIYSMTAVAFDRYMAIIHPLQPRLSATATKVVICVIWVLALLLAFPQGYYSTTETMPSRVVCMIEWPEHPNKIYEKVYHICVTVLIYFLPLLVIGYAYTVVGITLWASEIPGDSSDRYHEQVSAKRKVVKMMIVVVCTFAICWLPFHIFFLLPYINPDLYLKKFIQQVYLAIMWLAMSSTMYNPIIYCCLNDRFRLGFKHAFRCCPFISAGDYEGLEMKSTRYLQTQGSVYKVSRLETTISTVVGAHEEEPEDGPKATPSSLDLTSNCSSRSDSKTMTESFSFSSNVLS

Turning to `C[C@@H](O[C@H]1OCCN(Cc2n[nH]c(=O)[nH]2)[C@H]1c1ccc(F)cc1)c1cc(C(F)(F)F)cc(C(F)(F)F)c1` [Aprepitant, aprepitant, reference compound], the “Preincubation (30 min) (%) (enzyme activities relative to group without test compound)” value on human CYP3A4 is reported as 1.3%.
For the compound `Cc1cc(F)ccc1[C@H]1CN(CC23CC(C(=O)O)(C2)C3)CCN1C(=O)N(C)[C@H](C)c1cc(C(F)(F)F)cc(C(F)(F)F)c1` [Example 11, 3-[(S)-4-{[(R)-1-(3,5-Bistrifluoromethylphenyl)ethyl]methylcarbamoyl}-3-(4-fluoro-2-methylphenyl)piperazin-1-ylmethyl]bicyclo[1.1.1]pentane-1-carboxylic acid], the IC50 at human NK1 receptor [1] is 1.91 nM. The remaining activity at 1 µM on human NK1 receptor [2] came out at 24%.
The matching figures for `Cc1cc(F)ccc1[C@H]1CN(C2CCC(CC(=O)O)CC2)CC[C@@H]1C(=O)N(C)[C@@H](C)c1cc(C(F)(F)F)cc(C(F)(F)F)c1` (stereo partly drawn) [Example 12, {4-[(3 S,4S)-4-{[(S)-1-(3,5-Bistrifluoromethylphenyl)ethyl]methylcarbamoyl}-3-(4-fluoro-2-methylphenyl)piperidin-1-yl]cyclohexyl}lacetic acid]: 0.282 nM and 4.9%.
With `Cc1cc(F)ccc1[C@H]1CN(C[C@H]2CC[C@@H](CC(=O)O)CC2)CC[C@@H]1C(=O)N(C)[C@@H](C)c1cc(C(F)(F)F)cc(C(F)(F)F)c1` [Example 13, cis-{4-[(3S,4S)-4-{[(S)-1-(3,5-Bistrifluoromethylphenyl)ethyl]methylcarbamoyl}-3-(4-fluoro-2-methylphenyl)piperidin-1-ylmethyl]cyclohexyl}acetic acid], the IC50 at human NK1 receptor [1] was 0.646 nM. For the same compound, the remaining activity at 1 µM at human NK1 receptor [2] was determined as 4.1%. The “Preincubation (30 min) (%) (enzyme activities relative to group without test compound)” value at human CYP3A4 came out at 18%.
Taken in the same sequence, the figures for `Cc1cc(F)ccc1[C@H]1CN(C[C@H]2CC[C@H](CC(=O)O)CC2)CC[C@@H]1C(=O)N(C)[C@@H](C)c1cc(C(F)(F)F)cc(C(F)(F)F)c1` [Example 14, trans-{4-[(3 S,4S)-4-{[(S)-1-(3,5-Bistrifluoromethylphenyl)ethyl]methylcarbamoyl}-3-(4-fluoro-2-methylphenyl)piperidin-1-ylmethyl]cyclohexyl}lacetic acid] were 1.35 nM, 14% and 15%.
